Counter-ions that a name gives are not always drawn.
How the values were obtained:
[1] = tested on: Spontaneously Hypertensive Rats; assay: Hypotensive activity: mean arterial blood pressure in spontaneously hypertensive rats; assay type: in vivo, rat (Okamoto strain, male); conditions: SHR, gavage, 100 mg/kg or less, two doses 24 h apart, measured at 28 hours, average MABP of rats used 160±1.5 mm
Experimental: The novel compounds of the invention are active hypotensive agents at nontoxic doses when administered to mammals. These compounds were tested for hypotensive activity by the method of P. S. Chan and D. W. Poorvin, Clinical and Experimental Hypertension, (6), 817-830 (1979). Male, 16 week old, spontaneously hypertensive rats of the Okamoto strain (Taconic Farms, Germantown, N.Y.) having an average means arterial blood pressure of 160±1.5 mm of mercury are used in the test. A rat is dosed by gavage with a test compound, suspended in 2% pre-boiled starch at a concentration of 50 mg/ml, at a dose of 100 mg/kg of body weight or less, with 0.9% sodium chloride loading at a dose of 25 ml/kg of body weight. A second identical dose of the test compound, without sodium chloride loading is given 24 hours later. At 28 hours after the initial dose the mean arterial blood pressure is measured by the method of Chan and Poorvin vide supra.

[2] = tested on: mice (hypoxic environment); assay: Hypoxic survival test; assay type: in vivo, mouse (Royal Hart); conditions: intraperitoneal, 10% oxygen, 5 minutes; for responders at 10 mg/kg / responders at 100 mg/kg: Mus musculus, ip, 5 min, read-out: % Survivors
Experimental: The hypoxic survival test is a useful in vivo test for measuring the effectiveness of central nervous system-acting drugs in enhancing survival in an hypoxic environment relative to the known parasympathomimetic agent physostigmine.
Drugs are tested by intraperitoneal injection of groups of mice 30 minutes prior to placing them in an hypoxic environment and measuring survival. The rationale of this test is that drugs which enhance survival under hypoxic conditions without concomitant depression or sedative side effects, do so by enhancing brain metabolism, i.e., by improving energy supply relative to demand and so preserving normal brain function under conditions of reduced energy metabolism. Considering the dependence of the brain on a constant supply of energy, drugs which have this property may have many far-reaching therapeutic indications, including aiding recovery from stroke and closed head injury and reducing the deleterious effects of age-related central nervous system deficits.
In the hypoxic survival test, groups of 20 Royal Hart mice (6 weeks of age) were injected intraperitoneally with a test compound in saline at various doses ranging from 1 to 200 mg/kg, 30 minutes prior to placing them in an hypoxic mixture (10% oxygen, 90% […]) and measuring survival after 5 minutes.
A control group of 20 mice was injected intraperitoneally with saline (0.01 ml/g of body weight) and processed as described above.
Another group of 20 mice was injected intraperitoneally with 0.125 mg/kg of physostigmine in saline and processed as described above.

| SMILES | MABP/mmHg (mean arterial blood pressure) [1] | further results |
| --- | --- | --- |
| N#Cc1cnn2c1N(C(=O)CN1CCN(c3cccc(Cl)c3)CC1)CC=C2c1cccc(C(F)(F)F)c1 [Example 26, 4-[[4-(3-Chlorophenyl)-1-piperazinyl]acetyl]-4,5-dihydro-7-[3-(trifluoromethyl)phenyl]pyrazolo[1,5-a]pyrimidine-3-carbonitrile] | 124 mmHg | – |
| N#Cc1cnn2c1N(C(=O)CN1CCN(c3ncccn3)CC1)CC=C2c1cccc(C(F)(F)F)c1 [Example 28, 4,5-Dihydro-4-[[4-(2-pyrimidinyl)-1-piperazinyl]acetyl]-7-[3-(trifluoromethyl)phenyl]pyrazolo[1,5-a]pyrimidine-3-carbonitrile] | 127 mmHg | – |
| N#Cc1cnn2c1N(C(=O)CN1CCN(Cc3ccccc3)CC1)CC=C2c1cccc(C(F)(F)F)c1 [Example 78, 4,5-Dihydro-4-[[4-(phenylmethyl)-1-piperazinyl]acetyl]-7-[3-(trifluoromethyl)phenyl]pyroazolo[1,5-a]pyrimidine-3-carbonitrile, dihydrochloride] | – | MABP/mmHg (mean arterial blood pressure) ([1]; dihydrochloride, 100 mg/kg): 137 mmHg |
| N#Cc1cnn2c1N(C(=O)CN1CCN(C(c3ccc(F)cc3)c3ccc(F)cc3)CC1)CC=C2c1cccc(C(F)(F)F)c1 [Example 40, 4-[[4-[Bis(4-fluorophenyl)methyl]-1-piperazinyl]acetyl]-4,5-dihydro-7-[3-(trifluoromethyl)phenyl]pyrazolo[1,5-a]pyrimidine-3-carbonitrile] | 121 mmHg | – |
| N#Cc1cnn2c1N(C(=O)CN1CCN(c3ccccc3)CC1)CC=C2c1cccc(C(F)(F)F)c1 [Example 25, 4,5-Dihydro-4-[(4-phenyl-1-piperazinyl)acetyl]-7-[3-(trifluoromethyl)phenyl]pyrazolo[1,5-a]pyrimidine-3-carbonitrile] | 137 mmHg | – |
| N#Cc1cnn2c1N(C(=O)CN1CCN(c3ccc(F)cc3)CC1)CC=C2c1cccc(C(F)(F)F)c1 [Example 31, 4-[[4-(4-Fluorophenyl)-1-piperazinyl]acetyl]-4,5-dihydro-7-[3-(trifluoromethyl)phenyl]pyrazolo[1,5-a]pyrimidine-3-carbonitrile] | 130 mmHg | – |
| N#Cc1cnn2c1N(C(=O)CCN1CCN(Cc3ccc(Cl)cc3)CC1)CC=C2c1cccc(C(F)(F)F)c1 [Example 35, 4-[3-[4-[(Chlorophenyl)methyl]-1-piperazinyl]-1-oxopropyl]-4,5-dihydro-7-[3-(trifluoromethyl)phenyl]pyrazolo[1,5-a]pyrimidine-3-carbonitrile] | 138 mmHg | – |
| N#Cc1cnn2c1N(C(=O)CN1CCN(C3CCC3)CC1)CC=C2c1cccc(C(F)(F)F)c1 [Example 52, 4-[(4-Cyclobutyl-1-piperazinyl)acetyl]-4,5-dihydro-7-[3-(trifluoromethyl)phenyl)pyrazolo[1,5-a]pyrimidine-3-carbonitrile] | 124 mmHg | – |
| C=CCN1CCN(CC(=O)N2CC=C(c3cccc(C(F)(F)F)c3)n3ncc(C#N)c32)CC1 [Example 47, 4,5-Dihydro-4-[[4-(2-propenyl)-1-piperazinyl]acetyl]-7-[3-(trifluoromethyl)phenyl]pyrazolo[1,5-a]pyrimidine-3-carbonitrile] | 139 mmHg | – |
| N#Cc1cnn2c1N(C(=O)CN1CCN(C(c3ccccc3)c3ccc(Cl)cc3)CC1)CC=C2c1cccc(C(F)(F)F)c1 (centres unmarked) [Example 21, 4-[[4-[(4-Chlorophenyl)phenylmethyl]-1-piperazinyl]acetyl]-4,5-dihydro-7-[3-(trifluoromethyl)phenyl]pyrazolo[1,5-a]pyrimidine-3-carbonitrile] | 134 mmHg | – |
| N#Cc1cnn2c1N(C(=O)CN1CCN(Cc3ccccc3)CC1)CC=C2c1ccc(Cl)cc1 [Example 58, 7-(4-Chlorophenyl)-4,5-dihydro-4-[[4-(phenylmethyl)-1-piperazinyl]acetyl]pyrazolo[1,5-a]pyrimidine-3-carbonitrile] | – | responders at 10 mg/kg [2]: 50%; responders at 100 mg/kg ([2]; 100 mg/kg): 82.5% |
| CC1=C(c2cccc(Cl)c2)n2ncc(C#N)c2N(C(=O)CN2CCN(Cc3ccccc3F)CC2)C1 [Example 157, 7-(3-Chlorophenyl)-4-[[4-[(2-fluorophenyl)methyl]-1-piperazinyl]acetyl]-4,5-dihydro-6-methylpyrazolo[1,5-a]pyrimidine-3-carbonitrile, dihydrochloride] | – | responders at 100 mg/kg ([2]; 100 mg/kg): 45% |
| O=C(CN1CCN(Cc2ccccc2)CC1)N1CC=C(c2cccc(C(F)(F)F)c2)n2ncc(Br)c21 [Example 154, 3-Bromo-4,5-dihydro-4-[[4-(phenylmethyl)-1-piperazinyl]acetyl]-7-[3-(trifluoromethyl)phenyl]pyrazolo[1,5-a]pyrimidine, dihydrochloride] | – | responders at 10 mg/kg [2]: 20% |
| N#Cc1cnn2c1N(C(=O)CN1CCN(Cc3cccc(C(F)(F)F)c3)CC1)CC=C2c1cccc(C(F)(F)F)c1 [Example 145, 4,5-Dihydro-7-[3-(trifluoromethyl)phenyl-4-[[4-[[3-(trifluoromethyl)phenyl]methyl]-1-piperazinyl]acetyl]pyrazolo[1,5-a]pyrimidine-3-carbonitrile, dihydrochloride] | – | % Survivors ([2]; 100 mg/kg, listed as 4,5-Dihydro-4-[[4-[(3-trifluoromethyl-phenyl)methyl]-1-piperazinyl]acetyl]-7-[3-, dihydrochloride): 85% |
| COc1cccc(CN2CCN(CC(=O)N3CC=C(c4ccccc4)n4ncc(C#N)c43)CC2)c1 [Example 150, 4,5-Dihydro-4-[[4-[(3-methoxyphenyl)methyl]-1-piperazinyl]acetyl]-7-phenylpyrazolo[1,5-a]pyrimidine-3-carbonitrile, dihydrochloride] | – | responders at 10 mg/kg [2]: 45% |
| CC(C)N1CCN(CC(=O)N2CC=C(c3cccc(C(F)(F)F)c3)n3ncc(C#N)c32)CC1 [Example 51, 4,5-Dihydro-4-[[4-(1-methylethyl)-1-piperazinyl]acetyl]-7-[3-(trifluoromethyl)phenyl]pyrazolo[1,5-a]pyrimidine-3-carbonitrile] | 139 mmHg | – |
| COc1cccc(CN2CCN(CC(=O)N3CC(C)=C(c4cccc(Cl)c4)n4ncc(C#N)c43)CC2)c1 [Example 143, 7-(3-Chlorophenyl)-4,5-dihydro-4-[[4-[(3-methoxyphenyl)methyl]-1-piperazinyl]acetyl]-6-methylpyrazolo[1,5-a]pyrimidine-3-carbonitrile, dihydrochloride] | – | responders at 100 mg/kg ([2]; 100 mg/kg): 65% |
| COc1ccc(C(=O)N2CCN(CC(=O)N3CC=C(c4cccc(C(F)(F)F)c4)n4ncc(C#N)c43)CC2)cc1 [Example 162, 4,5-Dihydro-4-[[4-(4-methoxybenzoyl)-1-piperazinyl]acetyl]-7-[3-(trifluoromethyl)phenyl]pyrazolo[1,5-a]pyrimidine-3-carbonitrile] | – | responders at 100 mg/kg ([2]; 100 mg/kg): 45% |
| CCC1=C(c2cccc(C(F)(F)F)c2)n2ncc(C#N)c2N(C(=O)CN2CCN(Cc3ccccc3)CC2)C1 [Example 161, 4,5-Dihydro-6-ethyl-4-[[4-(phenylmethyl)-1-piperazinyl]acetyl]-7-[3-(trifluoromethyl)phenyl]pyrazolo[1,5-a]pyrimidine-3-carbonitrile] | – | responders at 100 mg/kg ([2]; 100 mg/kg): 25% |
